From the METLIN SMRT retention time set (Domingo-Almenara et al. 2019)

test: gradient 5% acetonitrile 3 min, to 50% in 2 min, to 85% in 15 min, held 3 min, 100 µL/min; conditions: column: Zorbax Extend-C18 2.1 x 50 mm; eluents: water / acetonitrile, 0.1% formic acid
Outline: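 Using water and acetonitrile that each contained 0.1% formic acid, mixtures of ~100 pure standards were separated at 100 μL/min on a Zorbax Extend-C18 column (2.1 × 50 mm, 1.8 μm). The HPLC fed a quadrupole time-of-flight mass spectrometer working in positive and negative ionization mode, with dead and dwell volumes of 40 μL and 900 μL. Data were acquired over 3 months. Retention time was read from computationally picked adduct peaks after manual inspection of each.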

Row | RP-LC retention time | Compound
1 | 960 s | Cc1sc(C)c(S(=O)(=O)NCc2ccc(N(C)C)cc2)c1-c1cc(C(F)(F)F)on1
2 | 601 s | O=C(NCCN1CCOCC1)c1ccc(CS(=O)Cc2cccc(Cl)c2)o1 (stereo not given)
3 | 646 s | Cc1cc(NCCCC(=O)NC2CCCCC2)n2nc(-c3cccnc3)nc2n1
4 | 791 s | O=C(Nc1ccc(Nc2ccc(-n3cccn3)nn2)cc1)Nc1ccccc1Cl
5 | 733 s | CCOc1ccc(NC(=O)CNC(=O)C2CCCCC2)cc1
6 | 1030 s | O=c1c2nc(-c3ccc(F)cc3F)cn2ccn1-c1ccc2c(c1)CCC2
7 | 729 s | COC(=O)Cn1c(C)cc(=O)n2nc(-c3ccccc3Cl)nc12
8 | 712 s | O=C(Nc1ccc2c(c1)OCCO2)N1CCC2(CCCCO2)CC1
9 | 558 s | CNC(=O)[C@@H]1CN(C(=O)c2cc(C)no2)C[C@H]1COC
10 | 1020 s | O=c1c2cc(-c3cccs3)nn2cnn1Cc1nc(-c2ccc3c(c2)OCO3)no1
11 | 629 s | O=C1CN(C(=O)CCC[C@@H]2[C@H]3CCCN4CCC[C@@H](CN2C(=O)c2cccnc2)[C@@H]34)CCN1
12 | 971 s | CC(C)CNC(=O)c1sc2ncccc2c1-n1cccc1
13 | 966 s | COc1cccc(NC(=O)C2CCN(S(C)(=O)=O)c3cc(Cl)ccc3O2)c1 (stereo not given)
14 | 871 s | CCOC(=O)c1c(C)[nH]c(C(=O)N2CCC(C(C)C(=O)N3CCN(c4ccccc4)CC3)CC2)c1C (stereo not given)
15 | 952 s | Cc1cc2nn(CC(=O)Nc3ccc(Br)cc3F)c(=O)n2c(-c2ccc(F)cc2)n1
16 | 548 s | COCCNC(=O)c1coc(NC(=O)c2cnccn2)n1
17 | 681 s | CCn1cnc(S(=O)(=O)N2CCC(C(=O)Nc3ccc4c(c3)OCCO4)CC2)c1
18 | 749 s | CCSc1nc(NCC(C)C)c2cnn(CCNC(=O)c3cn(C)nc3OC)c2n1
19 | 902 s | Cc1ccc(CNC(=O)c2cn(C)nc2S(=O)(=O)N2CCSCC2)cc1
20 | 932 s | Cc1ccc(-c2nc(N3CC(C)CC(C)C3)c3ccccc3n2)cc1 (stereo not given)
21 | 685 s | O=C(c1cccc(F)c1)N1CCC[C@H]1c1nc(-c2ccccc2)n[nH]1
22 | 798 s | Cc1ccc2[nH]cc(CCN3CC(C(=O)Nc4ccccc4C)CC3=O)c2c1 (stereo not given)
23 | 677 s | CC(C)C(NC(=O)c1ccco1)C(=O)NCc1nn(C)c2ccccc12 (stereo not given)

Row | RP-LC retention time | Compound
24 | 728 s | CCCCNC(=O)C1CCCN(C(=O)Nc2ccc(NC(=O)NC3CCCC3)cc2)C1 (stereo not given)
25 | 628 s | Cc1cc(C(=O)NC(C)C)nn1C
26 | 1080 s | CCOC(=O)Cc1c(C(=O)OCC)nnc2c(-c3ccccc3)c(C)nn12
27 | 841 s | Cc1ccc(-c2nc(CN3CCCC3=O)no2)cc1C
28 | 938 s | CCOc1ccccc1-n1ccn(Cc2nc(-c3ccc(Cl)cc3)no2)c(=O)c1=O
29 | 572 s | COCCn1nc(C(=O)N(C)CCCc2c(C)nn(C)c2C)c2c1CCNC2
30 | 795 s | Cc1cc(C)cc(C(=O)NC2CCN(c3cc(-c4ccc(F)cc4)[nH]n3)C2)c1 (stereo not given)
31 | 887 s | C=CCN1C(=O)COc2ccc(-c3nc(NC(=O)C4CC4)sc3C)cc21
32 | 918 s | CC(=O)c1cccc(NC(=O)N2CCc3cc(-c4ccc(C(=O)N5CCOCC5)cc4)ccc32)c1
33 | 633 s | CS(=O)(=O)Nc1cccc(NC(=O)c2ccc(N3CCOCC3)nn2)c1
34 | 1250 s | COC(=O)c1cc2c(=O)n(-c3nc(-c4ccccc4)cs3)ccc2nc1C
35 | 596 s | COc1cc([C@@H]2c3cc4c(cc3[C@H](O)[C@@H](CO)[C@@H]2C(=O)NCCCN(C)C)OCO4)cc(OC)c1OC
36 | 635 s | CCCC(=O)Nc1ccc(CCc2nc3ccc(C(=O)NCc4ccco4)cc3[nH]2)cc1
37 | 962 s | COc1ccc(Br)cc1S(=O)(=O)NCCc1ccccc1
38 | 558 s | Cc1cn(-c2ccc(SCC(=O)NCc3ccc4c(c3)OCO4)nn2)cn1
39 | 618 s | CC(NCC(O)COc1c(F)cc(Br)cc1F)c1ccccc1 (stereo not given)
40 | 766 s | C=Cc1ccc(CN2CCCN(c3ncccc3-c3nc(CCC)no3)CC2)cc1
41 | 901 s | COc1ccc(C(=O)NC2CCN(c3cc(C)cc(C)c3)C2=O)cc1F (stereo not given)
42 | 657 s | CCOCC(=O)N1CCCCCNC(=O)[C@@H]2CCCC[C@@H]21
43 | 1190 s | Cc1ccc2c(c1)OCC(=O)N2Cc1nc(-c2ccc(Cl)c(F)c2)no1
44 | 696 s | Cc1ncsc1C1N(C2CCN(C(=O)C3CC3)CC2)C(=O)C12CCCC2 (stereo not given)
45 | 590 s | CS(=O)(=O)N1CCC(C2CCN(Cc3ccccc3C#N)C2)CC1 (stereo not given)
46 | 799 s | O=C(Nc1ccccc1)N[C@H]1C[C@H](C(=O)O)Nc2cc(Cl)cc(Cl)c21

Row | RP-LC retention time | Compound
47 | 892 s | Cc1ccc(-c2cn3c(CC(=O)NCc4ccc(Cl)cc4)csc3n2)cc1C
48 | 590 s | O=C(Cc1ccc(Cl)cc1)N1CCc2nc[nH]c2C1
49 | 618 s | COc1ccccc1CNC(=O)Cn1cncc(C)c1=O
50 | 754 s | CC(C)c1nnc(-c2ccc(S(=O)(=O)N3CCOCC3)o2)o1
51 | 1270 s | Clc1cccc(-c2noc(Cc3nc(-c4cccs4)cs3)n2)c1
52 | 646 s | CCN1CCC(N(Cc2cccs2)C(=O)Nc2ccccc2C)CC1
53 | 1040 s | Cc1ccc2c(c1)OCC(=O)N2Cc1nc(-c2ccccc2)no1
54 | 1160 s | Cc1ccc(-c2noc(-c3nc(C4CC4)no3)n2)cc1
55 | 1140 s | O=c1c2cc3c(cc2nc(SCc2nc(-c4ccccc4)no2)n1-c1ccc(F)cc1)OCO3
56 | 684 s | COCCC(=O)N1CC2CN(S(=O)(=O)c3ccc(C)cc3)CC(C1)O2
57 | 760 s | CN1CCC(OC(c2ccccc2)c2ccccc2)CC1
58 | 812 s | Cc1cccc(N2C(=O)CN(Cc3ccc(F)cc3)[C@H]3CS(=O)(=O)C[C@H]32)c1
59 | 722 s | CCOc1ccccc1NC(=O)N1CC(n2cnnc2-c2ccccc2)C1
60 | 1020 s | O=C(NCc1ccccc1)C1CCN(S(=O)(=O)c2cc(-c3noc(C4CCC4)n3)cs2)CC1
61 | 608 s | COc1cccc(C2CC(c3ccc(F)cc3)=NC3(CCN(C(C)C)CC3)N2)c1O (stereo not given)
62 | 822 s | Cc1ccc(CN2C[C@]34C=C[C@H](O3)[C@@H](C(=O)NCc3ccccc3)[C@H]4C2=O)cc1
63 | 804 s | COc1ccc(OC)c(NC(=O)NCC(=O)N2CCc3ccccc32)c1
64 | 682 s | COc1ccc(Cl)cc1NC(=O)N1CCC(n2c(C)nc3cccnc32)CC1
65 | 1160 s | COc1ccc2c(c1)CCc1sc(NC(=O)c3ccc(Cl)cc3)nc1-2
66 | 692 s | O=C(NCc1ccc2c(c1)OCO2)NCc1ccc2c(c1)OCO2
67 | 1170 s | CCC(=O)OCCN1C(=O)c2cccc3c(N4CCCCC4)ccc(c23)C1=O
68 | 1140 s | COC(=O)c1ccccc1NC(=O)N1CCOc2ccc(C)cc21
69 | 772 s | CC(C)c1ccc(S(=O)(=O)N(CC(=O)N2CCNCC2)CC(C)c2ccccc2)cc1 (stereo not given)

Row | RP-LC retention time | Compound
70 | 1250 s | CN(C)S(=O)(=O)N1CCC2(CC1)CN(c1cccc(F)c1)C2c1ccccc1 (stereo not given)
71 | 734 s | Cc1ccc(CNC(=O)CCn2nc(C)c3c(C)n(-c4ccccc4)nc3c2=O)o1
72 | 938 s | COc1ccc(-n2ccc(=O)c(-c3nc(-c4ccc(Cl)cc4)no3)n2)cc1
73 | 992 s | Cc1ccc2oc(=O)n(Cc3noc(C(=O)NCC(C)c4ccccc4)n3)c2c1 (stereo not given)
74 | 999 s | O=c1ccc(-c2cccc(Cl)c2)nn1CCc1nc(-c2ccc3c(c2)OCO3)no1
75 | 664 s | CCN1CCN(C(=O)c2cc3c(=O)n(Cc4ccco4)ccc3nc2C)CC1
76 | 821 s | Cc1ccc(C)c(NC(=O)C2CCCN(S(=O)(=O)c3c[nH]c(C(=O)N4CCCC4)c3)C2)c1 (stereo not given)
77 | 912 s | COC(=O)c1ccc(Oc2cc(C)nc(-n3nc(C)cc3C)n2)cc1
78 | 756 s | CCNC(=O)c1nc(Nc2ccc(CC)cc2)c2ccccc2n1
79 | 559 s | CNC(=O)[C@@H]1CN(C(=O)c2sc(C)nc2C)C[C@H]1c1n[nH]c(C)n1
80 | 1000 s | COc1ccc(-c2nc(C3CC(=O)N(c4ccc(F)c(Cl)c4)C3)no2)c(OC)c1 (stereo not given)
81 | 736 s | O=C(Nc1ccccc1)N1CCc2nn(Cc3ccccc3)c(=O)n2CC1
82 | 586 s | COc1ccc2[nH]c(=O)c(CCC(=O)NCCCN3CCCCC3)cc2c1
83 | 697 s | O=C1CCCCC(CNC(=O)C2(c3ccccc3)CC2)N1 (stereo not given)
84 | 606 s | Cc1nnc2c(NC(=O)c3ccsc3)cccn12
85 | 536 s | CS(=O)(=O)N1CCC(C(=O)NCC2(CO)CC2)CC1
86 | 983 s | COCCN(Cc1ccc(Cl)cc1)Cc1cc(=O)c2cccc(F)c2[nH]1
87 | 728 s | CCCC(=O)Nc1nc(-c2ccc3c(c2)NC(=O)CO3)cs1
88 | 910 s | CCOc1ccc(-n2c(=O)c3sccc3n(Cc3nc(-c4ccccc4OC)no3)c2=O)cc1
89 | 764 s | CCc1nc(-c2csc(S(=O)(=O)N3CCC(C(=O)NCC4CCCO4)CC3)c2)no1 (stereo not given)
90 | 661 s | CC1(C(=O)NC2CCCCCC2)Cn2c(cc3occc32)C(=O)N1Cc1cccnc1 (stereo not given)
